Measurements: ChEMBL document CHEMBL3862012, “Methylene versus carbonyl bridge in the structure of new tubulin polymerization inhibitors with tricyclic A-rings” (Bioorg Med Chem, 2016)

What was measured:
Format in all cases: functional
[1] = Cytotoxicity against human SK-MEL-2 cells assessed as growth inhibition at 10 uM after 48 hrs by SRB assay relative to control; details: SK-MEL-2, 48 h, read-out: GI
[2] = Cytotoxicity against human CCRF-CEM cells assessed as growth inhibition at 10 uM after 48 hrs by SRB assay relative to control; details: read-out: GI
[3] = Cytotoxicity against human SW620 cells assessed as growth inhibition at 10 uM after 48 hrs by SRB assay relative to control; details: SW-620, 48 h, read-out: GI
[4] = Cytotoxicity against human HCT116 cells assessed as growth inhibition at 10 uM after 48 hrs by SRB assay relative to control; details: HCT-116, 48 h, read-out: GI
[5] = Cytotoxicity against human HL-60(TB) cells assessed as growth inhibition at 10 uM after 48 hrs by SRB assay relative to control; details: HL-60, 48 h, read-out: GI
[6] = Cytotoxicity against human MDA-MB-435 cells assessed as growth inhibition at 10 uM after 48 hrs by SRB assay relative to control; details: MDA-MB-435, 48 h, read-out: GI
[7] = Cytotoxicity against human MOLT4 cells assessed as growth inhibition at 10 uM after 48 hrs by SRB assay relative to control; details: MOLT-4, 48 h, read-out: GI
[8] = Cytotoxicity against human MDA-MB-231 cells assessed as growth inhibition at 10 uM after 48 hrs by SRB assay relative to control; details: MDA-MB-231, 48 h, read-out: GI
[9] = Cytotoxicity against human BT549 cells assessed as growth inhibition at 10 uM after 48 hrs by SRB assay relative to control; details: BT-549, 48 h, read-out: GI
[10] = Cytotoxicity against human ACHN cells assessed as growth inhibition at 10 uM after 48 hrs by SRB assay relative to control; details: read-out: GI
[11] = Cytotoxicity against human DU145 cells assessed as growth inhibition at 10 uM after 48 hrs by SRB assay relative to control; details: DU-145, 48 h, read-out: GI
[12] = Cytotoxicity against human SKOV3 cells assessed as growth inhibition at 10 uM after 48 hrs by SRB assay relative to control; details: SK-OV-3, 48 h, read-out: GI
[13] = Cytotoxicity against human COLO205 cells assessed as growth inhibition at 10 uM after 48 hrs by SRB assay relative to control; details: COLO 205, 48 h, read-out: GI
[14] = Cytotoxicity against human U251 cells assessed as growth inhibition at 10 uM after 48 hrs by SRB assay relative to control; details: U-251, 48 h, read-out: GI
[15] = Cytotoxicity against human TK10 cells assessed as growth inhibition at 10 uM after 48 hrs by SRB assay relative to control; details: TK-10, 48 h, read-out: GI
[16] = Cytotoxicity against human LOXIMVI cells assessed as growth inhibition at 10 uM after 48 hrs by SRB assay relative to control; details: LOX IMVI, read-out: GI
[17] = Cytotoxicity against human KM12 cells assessed as growth inhibition at 10 uM after 48 hrs by SRB assay relative to control; details: KM12, 48 h, read-out: GI
[18] = Cytotoxicity against human UACC257 cells assessed as growth inhibition at 10 uM after 48 hrs by SRB assay relative to control; details: UACC-257, 48 h, read-out: GI
[19] = Cytotoxicity against human HCT15 cells assessed as growth inhibition at 10 uM after 48 hrs by SRB assay relative to control; details: HCT-15, 48 h, read-out: GI
[20] = Cytotoxicity against human IGROV1 cells assessed as growth inhibition at 10 uM after 48 hrs by SRB assay relative to control; details: IGROV-1, 48 h, read-out: GI
[21] = Cytotoxicity against human M14 cells assessed as growth inhibition at 10 uM after 48 hrs by SRB assay relative to control; details: M14, 48 h, read-out: GI
[22] = Cytotoxicity against human OVCAR3 cells assessed as growth inhibition at 10 uM after 48 hrs by SRB assay relative to control; details: OVCAR-3, 48 h, read-out: GI
[23] = Cytotoxicity against human MCF7 cells assessed as growth inhibition at 10 uM after 48 hrs by SRB assay relative to control; details: MCF7, 48 h, read-out: GI
[24] = Cytotoxicity against human SNB19 cells assessed as growth inhibition at 10 uM after 48 hrs by SRB assay relative to control; details: SNB-19, 48 h, read-out: GI
[25] = Cytotoxicity against human OVCAR4 cells assessed as growth inhibition at 10 uM after 48 hrs by SRB assay relative to control; details: OVCAR-4, 48 h, read-out: GI
[26] = Cytotoxicity against human T47D cells assessed as growth inhibition at 10 uM after 48 hrs by SRB assay relative to control; details: read-out: GI
[27] = Cytotoxicity against human HOP62 cells assessed as growth inhibition at 10 uM after 48 hrs by SRB assay relative to control; details: HOP-62, 48 h, read-out: GI
[28] = Cytotoxicity against human RXF393 cells assessed as growth inhibition at 10 uM after 48 hrs by SRB assay relative to control; details: RXF 393, 48 h, read-out: GI
[29] = Cytotoxicity against human SR cells assessed as growth inhibition at 10 uM after 48 hrs by SRB assay relative to control; details: read-out: GI
[30] = Cytotoxicity against human SNB75 cells assessed as growth inhibition at 10 uM after 48 hrs by SRB assay relative to control; details: SNB-75, 48 h, read-out: GI
[31] = Cytotoxicity against human A549 cells assessed as growth inhibition at 10 uM after 48 hrs by SRB assay relative to control; details: A549, 48 h, read-out: GI
[32] = Cytotoxicity against human PC3 cells assessed as growth inhibition at 10 uM after 48 hrs by SRB assay relative to control; details: PC-3, 48 h, read-out: GI
[33] = Cytotoxicity against human SF539 cells assessed as growth inhibition at 10 uM after 48 hrs by SRB assay relative to control; details: SF-539, 48 h, read-out: GI
[34] = Cytotoxicity against human NCI-H522 cells assessed as growth inhibition at 10 uM after 48 hrs by SRB assay relative to control; details: NCI-H522, 48 h, read-out: GI
[35] = Cytotoxicity against human RPMI8226 cells assessed as growth inhibition at 10 uM after 48 hrs by SRB assay relative to control; details: RPMI-8226, 48 h, read-out: GI
[36] = Cytotoxicity against human NCI-ADR-RES cells assessed as growth inhibition at 10 uM after 48 hrs by SRB assay relative to control; details: read-out: GI
[37] = Cytotoxicity against human NCI-H23 cells assessed as growth inhibition at 10 uM after 48 hrs by SRB assay relative to control; details: NCI-H23, 48 h, read-out: GI

| SMILES | inhibition of growth at 10 µM [1] | inhibition of growth at 10 µM [2] | inhibition of growth at 10 µM [3] | inhibition of growth at 10 µM [4] | inhibition of growth at 10 µM [5] | inhibition of growth at 10 µM [6] | inhibition of growth at 10 µM [7] | inhibition of growth at 10 µM [8] | inhibition of growth at 10 µM [9] | inhibition of growth at 10 µM [10] | inhibition of growth at 10 µM [11] | inhibition of growth at 10 µM [12] | inhibition of growth at 10 µM [13] | inhibition of growth at 10 µM [14] | inhibition of growth at 10 µM [15] | inhibition of growth at 10 µM [16] | inhibition of growth at 10 µM [17] | inhibition of growth at 10 µM [18] | inhibition of growth at 10 µM [19] | inhibition of growth at 10 µM [20] | other results |
| --- | --- | --- | --- | --- | --- | --- | --- | --- | --- | --- | --- | --- | --- | --- | --- | --- | --- | --- | --- | --- | --- |
| COc1ccc(CN2c3ccccc3Sc3ccccc32)cc1F | 60% | 78% | 76% | 91% | 100% | 100% | 73% | 76% | 50% | 58% | 86% | 83% | 100% | 79% | 53% | 60% | 84% | 45% | 84% | 64% | inhibition of growth at 10 µM [21]: 100%; inhibition of growth at 10 µM [22]: 100%; inhibition of growth at 10 µM [23]: 84%; inhibition of growth at 10 µM [24]: 65%; inhibition of growth at 10 µM [25]: 51%; inhibition of growth at 10 µM [26]: 50%; inhibition of growth at 10 µM [27]: 80%; inhibition of growth at 10 µM [28]: 83%; inhibition of growth at 10 µM [29]: 83%; inhibition of growth at 10 µM [30]: 55%; inhibition of growth at 10 µM [31]: 78%; inhibition of growth at 10 µM [32]: 79%; inhibition of growth at 10 µM [33]: 100%; inhibition of growth at 10 µM [34]: 95%; inhibition of growth at 10 µM [35]: 79%; inhibition of growth at 10 µM [36]: 97%; inhibition of growth at 10 µM [37]: 69% |
| COc1ccc(CN2c3ccccc3Oc3ccccc32)cc1O | 100% | 88% | 73% | 86% | 84% | 91% | 75% | 43% | 60% | 64% | 63% | 69% | 9% | 76% | 36% | 61% | 79% | 61% | 72% | 55% | inhibition of growth at 10 µM [21]: 82%; inhibition of growth at 10 µM [22]: 81%; inhibition of growth at 10 µM [23]: 73%; inhibition of growth at 10 µM [24]: 65%; inhibition of growth at 10 µM [25]: 45%; inhibition of growth at 10 µM [26]: 69%; inhibition of growth at 10 µM [27]: 58%; inhibition of growth at 10 µM [28]: 50%; inhibition of growth at 10 µM [29]: 83%; inhibition of growth at 10 µM [30]: 73%; inhibition of growth at 10 µM [31]: 62%; inhibition of growth at 10 µM [32]: 69%; inhibition of growth at 10 µM [33]: 84%; inhibition of growth at 10 µM [34]: 100%; inhibition of growth at 10 µM [35]: 86%; inhibition of growth at 10 µM [36]: 75%; inhibition of growth at 10 µM [37]: 66% |
| COc1ccc(CN2c3ccccc3Sc3ccccc32)c(C(F)(F)F)c1 | 96% | 90% | 74% | 92% | 76% | 100% | 76% | 59% | 47% | 51% | 79% | 82% | 100% | 79% | 34% | 45% | 80% | 46% | 63% | 57% | inhibition of growth at 10 µM [21]: 92%; inhibition of growth at 10 µM [22]: 94%; inhibition of growth at 10 µM [23]: 76%; inhibition of growth at 10 µM [24]: 67%; inhibition of growth at 10 µM [25]: 56%; inhibition of growth at 10 µM [26]: 74%; inhibition of growth at 10 µM [27]: 59%; inhibition of growth at 10 µM [28]: 100%; inhibition of growth at 10 µM [29]: 88%; inhibition of growth at 10 µM [30]: 92%; inhibition of growth at 10 µM [31]: 67%; inhibition of growth at 10 µM [32]: 73%; inhibition of growth at 10 µM [33]: 100%; inhibition of growth at 10 µM [34]: 100%; inhibition of growth at 10 µM [35]: 71%; inhibition of growth at 10 µM [36]: 77%; inhibition of growth at 10 µM [37]: 56% |
| COc1ccc(CN2c3ccccc3Sc3ccccc32)c(F)c1 | 70% | 93% | 90% | 84% | 100% | 100% | 77% | 40% | 47% | 57% | 79% | 70% | 88% | 70% | 49% | 47% | 74% | 48% | 65% | 50% | inhibition of growth at 10 µM [21]: 89%; inhibition of growth at 10 µM [22]: 100%; inhibition of growth at 10 µM [23]: 77%; inhibition of growth at 10 µM [24]: 59%; inhibition of growth at 10 µM [25]: 38%; inhibition of growth at 10 µM [26]: 88%; inhibition of growth at 10 µM [27]: 73%; inhibition of growth at 10 µM [28]: 99%; inhibition of growth at 10 µM [29]: 88%; inhibition of growth at 10 µM [30]: 100%; inhibition of growth at 10 µM [31]: 66%; inhibition of growth at 10 µM [32]: 70%; inhibition of growth at 10 µM [33]: 100%; inhibition of growth at 10 µM [34]: 100%; inhibition of growth at 10 µM [35]: 88%; inhibition of growth at 10 µM [36]: 78%; inhibition of growth at 10 µM [37]: 50% |
